From patent US10806142B2, “2-amino-5-ketoxime-pyrimidine derivatives and their use for controlling undesired plant growth” (Bayer CropScience Aktiengesellschaft, priority 2015, dated 2020)

How the values were obtained:
Setaria viridis [1] = experiment: Post-emergence herbicidal effect; assay type: in vivo
Method: (§1) [table] 2. Post-Emergence Herbicidal Effect and Crop Plant Compatibility Seeds of monocotyledonous and dicotyledonous weed and crop plants are laid out in sandy loam in wood-fiber pots, covered with soil and cultivated in a greenhouse under good growth conditions. 2 to 3 weeks after sowing, the test plants are treated at the one-leaf stage. The compounds of the invention, formulated in the form of wettable powders (WP) or as emulsion concentrates (EC), are then sprayed onto the green parts of the plants as aqueous suspension or emulsion at a water application rate equating to 600 to 800 L/ha with addition of 0.2% wetting agent. After the trial plants have been left to stand in a greenhouse under optimal growth conditions for about 3 weeks, the efficacy of the formulations is scored visually in comparison to untreated controls (herbicidal action in percent (%): 100% efficacy=the plants have died, 0% efficacy=like control plants).

Polygpnum convolvulus [2] = experiment: Post-emergence herbicidal effect; assay type: in vivo
Method: as §1

Stellaria media [3] = experiment: Post-emergence herbicidal effect; assay type: in vivo; details: visual score after about 3 weeks
Method: as §1

Abutilon theophrasti = experiment: Post-emergence herbicidal effect; assay type: in vivo; details: visual score after about 3 weeks
Method: as §1

Viola tricolor [4] = experiment: Post-emergence herbicidal effect; assay type: in vivo
Method: as §1

[5] = logp (HCOOH), physicochemical characterization; details: HCOOH (formic acid)
Matricaria inodora [6] = experiment: Pre-emergence herbicidal effect; assay type: in vivo
Excerpt: (§2) 1. Pre-Emergence Herbicidal Effect and Crop Plant Compatibility Seeds of monocotyledonous and dicotyledonous weed plants and crop plants are laid out in wood-fiber pots in sandy loam and covered with soil. The compounds of the invention, formulated in the form of wettable powders (WP) or as emulsion concentrates (EC), are then applied to the surface of the covering soil as aqueous suspension or emulsion at a water application rate equating to 600 to 800 L/ha with addition of 0.2% wetting agent. After the treatment, the pots are placed in a greenhouse and kept under good growth conditions for the trial plants. The damage to the trial plants is scored visually after a trial duration of 3 weeks by comparison with untreated controls (herbicidal activity in percent (%): 100% efficacy=the plants have died, 0% efficacy=like control plants). [table]

Cyperus esculentus [7] = experiment: Pre-emergence herbicidal effect; assay type: in vivo; details: dosage 320 g a.i./ha
Excerpt: as §2

Veronica persica = experiment: Pre-emergence herbicidal effect; assay type: in vivo
Excerpt: as §2

Polygpnum convolvulus [8] = experiment: Pre-emergence herbicidal effect; assay type: in vivo
Excerpt: as §2

Echinochloa crus-galli = experiment: Pre-emergence herbicidal effect; assay type: in vivo
Excerpt: as §2

Stellaria media [9] = experiment: Pre-emergence herbicidal effect; assay type: in vivo
Excerpt: as §2

Amaranthus retroflexus [10] = experiment: Pre-emergence herbicidal effect; assay type: in vivo
Excerpt: as §2

Viola tricolor [11] = experiment: Pre-emergence herbicidal effect; assay type: in vivo
Excerpt: as §2

Matricaria inodora [12] = experiment: Post-emergence herbicidal effect; assay type: in vivo; details: visual score after about 3 weeks
Method: as §1

Ipomoea purpurea = experiment: Post-emergence herbicidal effect; assay type: in vivo
Method: as §1

Cyperus esculentus [13] = experiment: Post-emergence herbicidal effect; assay type: in vivo; details: dosage 320 g a.i./ha, visual score after about 3 weeks
Method: as §1

Setaria viridis [14] = experiment: Pre-emergence herbicidal effect; assay type: in vivo
Excerpt: as §2

Amaranthus retroflexus [15] = experiment: Post-emergence herbicidal effect; assay type: in vivo; details: visual score after about 3 weeks
Method: as §1

Avena fatua = experiment: Pre-emergence herbicidal effect; assay type: in vivo; details: dosage 320 g a.i./ha
Excerpt: as §2

Alopecurus myosuroides = experiment: Pre-emergence herbicidal effect; assay type: in vivo; details: dosage 320 g a.i./ha
Excerpt: as §2

[16] = dosage 320 g a.i./ha, visual score after about 3 weeks
[17] = dosage 80 g a.i./ha, visual score after about 3 weeks
[18] = dosage cell empty, first line of the compound
[19] = dosage cell empty, second line of the compound

Row | Compound | chromatographic logP [5] | Herbicidal activity against POLCO (Polygpnum convolvulus [2]; [17]) [%] | Herbicidal activity against POLCO (Polygpnum convolvulus [2]; [16]) [%] | Herbicidal activity against STEME (Stellaria media [3]; dosage 80 g a.i./ha) [%] | Herbicidal activity against STEME (Stellaria media [3]; dosage 320 g a.i./ha) [%] | Herbicidal activity against ABUTH (Abutilon theophrasti; dosage 320 g a.i./ha) [%] | Herbicidal activity against VIOTR (Viola tricolor [4]; [17]) [%] | Herbicidal activity against VIOTR (Viola tricolor [4]; [16]) [%] | Herbicidal activity against MATIN (Matricaria inodora [6]; dosage 80 g a.i./ha) [%] | Herbicidal activity against MATIN (Matricaria inodora [6]; dosage 320 g a.i./ha) [%] | Herbicidal activity against VERPE (Veronica persica; dosage 80 g a.i./ha) [%] | Herbicidal activity against VERPE (Veronica persica; dosage 320 g a.i./ha) [%] | Herbicidal activity against ECHCG (Echinochloa crus-galli; dosage 320 g a.i./ha) [%] | Herbicidal activity against STEME (Stellaria media [9]; dosage 80 g a.i./ha) [%] | Herbicidal activity against STEME (Stellaria media [9]; dosage 320 g a.i./ha) [%] | Herbicidal activity against AMARE (Amaranthus retroflexus [10]; dosage 80 g a.i./ha) [%] | Herbicidal activity against AMARE (Amaranthus retroflexus [10]; dosage 320 g a.i./ha) [%] | Herbicidal activity against VIOTR (Viola tricolor [11]; dosage 320 g a.i./ha) [%] | Herbicidal activity against SETVI (Setaria viridis [14]; dosage 320 g a.i./ha) [%] | Herbicidal activity against VIOTR (Viola tricolor [11]; dosage 80 g a.i./ha) [%] | also measured
1 | C/C(=N\Oc1ccc(F)cc1)c1cnc(N[C@H]2c3cc(C)ccc3C[C@@H]2C)nc1 [Compound 1.101a, N-[(1R,2S)-2,6-Dimethyl-2,3-dihydro-1H-inden-1-yl]-5-[(1E)-N-(4-fluorophenoxy)ethanimidoyl]pyrimidine-2-amine] | 5.34 | 100 | 100 | 90 | 90 | 100 | 90 | 90 | 80 | 100 | 100 | 100 | 100 | 100 | 100 | 90 | 100 | 100 |  |  | Herbicidal activity against SETVI (Setaria viridis [1]; [16]): 80%; Herbicidal activity against ABUTH (Abutilon theophrasti; dosage 80 g a.i./ha): 90%; Herbicidal activity against CYPES (Cyperus esculentus [7]): 90%; Herbicidal activity against POLCO (Polygpnum convolvulus [8]; dosage 80 g a.i./ha): 90%
2 | CCO/N=C(\C)c1cnc(N[C@H]2c3cc(C)ccc3C[C@@H]2C)nc1 [Compound 1.103a, N-[(1R,2S)-2,6-Dimethyl-2,3-dihydro-1H-inden-1-yl]-5-[(1E)-N-ethoxyethanimidoyl]pyrimidine-2-amine] |  | 90 | 100 | 90 | 90 | 90 | 90 | 90 | 90 | 100 |  |  | 100 | 100 | 100 | 100 | 100 | 100 | 100 | 100 | Herbicidal activity against MATIN (Matricaria inodora [12]; dosage 320 g a.i./ha): 80%; Herbicidal activity against PHBPU (Ipomoea purpurea; [17]): 80%; Herbicidal activity against PHBPU (Ipomoea purpurea; [16]): 90%; Herbicidal activity against POLCO (Polygpnum convolvulus [8]; dosage 320 g a.i./ha): 100%
3 | CC/C(=N/OCc1ccc(Cl)cc1)c1cnc(N[C@H]2c3cc(C)ccc3C[C@@H]2C)nc1CC [Compound 1.115b, 5-{(1Z)-N-[(4-Chlorobenzyl)oxy]propanimidoyl}-N-[(1R,2S)-2,6-dimethyl-2,3-dihydro-1H-inden-1-yl]-4-ethylpyrimidine-2-amine] |  |  |  |  |  |  |  |  |  | 90 | 100 | 100 |  |  | 100 |  |  | 100 |  | 90 | Herbicidal activity against PHBPU (Ipomoea purpurea; [18]): 90%; Herbicidal activity against SETVI (Setaria viridis [1]; [18]): 100%; Herbicidal activity against SETVI (Setaria viridis [1]; [19]): 80%; Herbicidal activity against POLCO (Polygpnum convolvulus [2]; [18]): 80%; Herbicidal activity against VIOTR (Viola tricolor [4]; [18]): 90%; Herbicidal activity against VIOTR (Viola tricolor [4]; [19]): 80%

The next lines start with results.

Row | chromatographic logP [5] | Compound | Herbicidal activity against POLCO (Polygpnum convolvulus [2]; [17]) [%] | Herbicidal activity against POLCO (Polygpnum convolvulus [2]; [16]) [%] | Herbicidal activity against STEME (Stellaria media [3]; dosage 80 g a.i./ha) [%] | Herbicidal activity against STEME (Stellaria media [3]; dosage 320 g a.i./ha) [%] | Herbicidal activity against ABUTH (Abutilon theophrasti; dosage 320 g a.i./ha) [%] | Herbicidal activity against VIOTR (Viola tricolor [4]; [17]) [%] | Herbicidal activity against VIOTR (Viola tricolor [4]; [16]) [%] | Herbicidal activity against MATIN (Matricaria inodora [6]; dosage 80 g a.i./ha) [%] | Herbicidal activity against MATIN (Matricaria inodora [6]; dosage 320 g a.i./ha) [%] | Herbicidal activity against VERPE (Veronica persica; dosage 80 g a.i./ha) [%] | Herbicidal activity against VERPE (Veronica persica; dosage 320 g a.i./ha) [%] | Herbicidal activity against ECHCG (Echinochloa crus-galli; dosage 320 g a.i./ha) [%] | Herbicidal activity against STEME (Stellaria media [9]; dosage 80 g a.i./ha) [%] | Herbicidal activity against STEME (Stellaria media [9]; dosage 320 g a.i./ha) [%] | Herbicidal activity against AMARE (Amaranthus retroflexus [10]; dosage 80 g a.i./ha) [%] | Herbicidal activity against AMARE (Amaranthus retroflexus [10]; dosage 320 g a.i./ha) [%] | Herbicidal activity against VIOTR (Viola tricolor [11]; dosage 320 g a.i./ha) [%] | Herbicidal activity against SETVI (Setaria viridis [14]; dosage 320 g a.i./ha) [%] | Herbicidal activity against VIOTR (Viola tricolor [11]; dosage 80 g a.i./ha) [%] | also measured
4 | 4.92 | CCO/N=C(/C)c1cnc(N[C@H]2c3cc(C)ccc3C[C@@H]2C)nc1 [Compound 1.103b, N-[(1R,2S)-2,6-dimethyl-2,3-dihydro-1H-inden-1-yl]-5-[(1Z)-N-ethoxyethanimidoyl]pyrimidine-2-amine] | 90 | 100 | 80 | 90 | 100 | 90 | 100 | 100 | 100 | 100 | 100 | 100 | 100 | 100 | 80 | 100 | 100 | 90 | 100 | Herbicidal activity against MATIN (Matricaria inodora [12]; dosage 80 g a.i./ha): 80%; Herbicidal activity against MATIN (Matricaria inodora [12]; dosage 320 g a.i./ha): 100%; Herbicidal activity against PHBPU (Ipomoea purpurea; [16]): 90%; Herbicidal activity against CYPES (Cyperus esculentus [13]): 80%; Herbicidal activity against SETVI (Setaria viridis [1]; [16]): 80%; Herbicidal activity against ABUTH (Abutilon theophrasti; dosage 80 g a.i./ha): 90%; Herbicidal activity against POLCO (Polygpnum convolvulus [8]; dosage 80 g a.i./ha): 100%; Herbicidal activity against POLCO (Polygpnum convolvulus [8]; dosage 320 g a.i./ha): 100%
5 | 3.86 | CCCC/C(=N\O)c1cnc(N[C@H]2c3cc(C)ccc3C[C@@H]2C)nc1 [Compound 1.85a, N-[(1R,2S)-2,6-Dimethyl-2,3-dihydro-1H-inden-1-yl]-5-[(1E)-N-hydroxypentanimidoyl]pyrimidine-2-amine] | 80 | 80 | 80 | 90 | 100 | 80 | 90 |  | 100 | 100 | 100 | 100 | 100 | 100 |  | 80 | 100 | 100 | 100 | Herbicidal activity against ABUTH (Abutilon theophrasti; dosage 80 g a.i./ha): 80%
6 | 4.1 | CCCC/C(=N/O)c1cnc(N[C@H]2c3cc(C)ccc3C[C@@H]2C)nc1 [Compound 1.85b, N-[(1R,2S)-2,6-dimethyl-2,3-dihydro-1H-inden-1-yl]-5-[(1Z)-N-hydroxypentanimidoyl]pyrimidine-2-amine] |  |  |  |  |  |  |  |  | 80 | 100 | 100 |  | 100 | 100 |  | 80 | 100 |  | 100 | Herbicidal activity against POLCO (Polygpnum convolvulus [8]; dosage 320 g a.i./ha): 90%
7 | 3.86 | CC/C(=N/O)c1cnc(N[C@H]2c3cc(C)ccc3C[C@@H]2C)nc1CC [Compound 1.40b, N-[(1R,2S)-2,6-dimethyl-2,3-dihydro-1H-inden-1-yl]-4-ethyl-5-[(1Z)-N-hydroxypropanimidoyl]pyrimidine-2-amine] | 80 | 80 | 70 | 80 |  | 90 | 90 | 90 | 100 | 100 | 100 | 100 | 90 | 100 | 100 | 100 | 100 | 100 | 100 | Herbicidal activity against PHBPU (Ipomoea purpurea; [17]): 80%; Herbicidal activity against PHBPU (Ipomoea purpurea; [16]): 90%; Herbicidal activity against SETVI (Setaria viridis [1]; [16]): 90%; Herbicidal activity against AMARE (Amaranthus retroflexus [15]; dosage 80 g a.i./ha): 90%; Herbicidal activity against AMARE (Amaranthus retroflexus [15]; dosage 320 g a.i./ha): 100%; Herbicidal activity against AVEFA (Avena fatua): 90%; Herbicidal activity against CYPES (Cyperus esculentus [7]): 100%; Herbicidal activity against SETVI (Setaria viridis [14]; dosage 80 g a.i./ha): 100%; Herbicidal activity against POLCO (Polygpnum convolvulus [8]; dosage 80 g a.i./ha): 100%; Herbicidal activity against POLCO (Polygpnum convolvulus [8]; dosage 320 g a.i./ha): 100%; Herbicidal activity against ECHCG (Echinochloa crus-galli; dosage 80 g a.i./ha): 90%; Herbicidal activity against ALOMY (Alopecurus myosuroides): 80%
